# Measurements reported in patent EP4537820A1, “COMPOUND AND COMBINATIONS COMPRISING SAID COMPOUND TO IMPROVE IMMUNE RESPONSE” (Institut Gustave-Roussy, priority 2023, dated 2025).
# What was measured:
# 20S proteasome = test system: T1, 20S proteasome; experiment: Thermal Shift Assay (nanoDSF) with 20S; assay type: binding, human; details: 20S 50nM, compound at 100X (5µM, 0,1% DMSO)
# T1 construct: purified 20S proteasome from human erythrocytes; purchased Biotechne E-360-050; host or cells: human erythrocytes
# Protocol: Thermal shift assay was carried out with nano differential scanning fluorimetry (nanoDSF) using the Tycho NT.6 from Nanotemper and was performed at the I2BC platform (Gif-sur-Yvette). Samples were prepared in a final volume of 25µL in a 96-well plate prior to be loaded on the Tycho capillaries. Proteins were diluted in activity buffer (20mM Tris-HCl pH 7.4 and 20mM NaCl). After optimisation, REGγ concentration was set to 500nM and 20S concentration to 50nM. Compounds concentrations were determined as ratios to protein concentration and to stay below 0,5% of DMSO; accordingly, compounds with REGγ were tested at 40X (20µM, 0,4% DMSO) and at 100X (5µM, 0,1% DMSO) with 20S. A thermal ramp was applied from 20 to 95°C and fluorescence was followed at 350nm and 330 nm, measuring intrinsic fluorescence of the proteins from tryptophan and tyrosine residues. Binding was detected as a shift in the inflection temperature (Ti) compared to the DMSO control.
# To assess the efficacy of molecule 58 in directly binding to REGγ, inventors conducted a thermal shift assay (TSA). TSA leverages the property of proteins to undergo unfolding at specific temperatures, and the interaction with a ligand can alter the thermal stability, leading to a shift in the unfolding temperature. In their study, inventors examined how the compound 58 interacted with REGγ and monitored the change in melting temperature (ΔTm).
# [1] = test system: MCA WT cells (MCA fibrosarcoma); experiment: MTT assay; assay type: cell-based; details: Mus musculus, 24-hour treatment, read-out: IC50 (cell viability)
# Protocol: (§1) 2,5×10^4 of MCA cells or 5×10^4 of MCA c13 cells were plated in quadruplicates in clear 96-well plates and incubated overnight. The next day, cells were with various concentration of the tested compounds for 24h. After treatment, media was carefully removed before adding 50µL of new media and 10µL of tetrazolium salt solution (5mg/mL in PBS) and homogeneizing the well by pipetting up and down. The plate was then incubated for 2 hours at 37°C. After incubation, plate was centrifuged 5min at 1500rpm before adding 150µL of DMSO to each well to solubilize the formazan cristals. The plate was incubated on agitation for 10min and absorbance was read at 544nm using a EL808 (Biotek) plate reader.
# (§2) To assess the efficacy of compound 58 against tumor cell lines, inventors initially aimed to determine its IC50 values in both mouse and human cell lines. They utilized an MTT assay to ascertain these values for mouse MCA fibrosarcoma and human A375 melanoma cell lines. Specifically, they treated 2.5 × 10^4 MCA WT or MCA REGγ KO cells and 5 × 10^4 human A375 WT or A375 REGγ KO cells with varying concentrations of compound 58 for a 24-hour duration.
# [2] = test system: A375 WT cells (A375 melanoma); experiment: MTT assay; assay type: cell-based; details: Homo sapiens, A-375, 24-hour treatment, read-out: IC50 (cell viability)
# Protocol: as §1, §2
# A375 REGγ KO cells = experiment: MTT assay; assay type: cell-based; details: Homo sapiens, A-375, 24-hour treatment, read-out: IC50 (cell viability)
# Protocol: as §1, §2
# MCA REGγ KO cells = experiment: MTT assay; assay type: cell-based; details: Mus musculus, 24-hour treatment, read-out: IC50 (cell viability)
# Protocol: as §1, §2
# OT-1 CD8+ T cells = experiment: Co-culture of OT-1 cells with treated MCA205-Glob-SL8-intron cells, T cell activation by flow cytometry; assay type: cell-based, mouse
# Protocol: MCA205-Glob-SL8-intron were plated at 1×10^5 cells in 12-well plates and incubated overnight. The next day, cells were treated with different concentrations of drugs for 24 hours. After treatment, cells were harvested with trypsin, washed twice with OT-1 Media (RPMI-1640, 10% FBS, 2mM L-glutamine, 50µM of 2-mercaptoéthanol, 100 IU/mL of Penicillin G, […]), and each condition was counted with a KOVA slide and Trypan-blue. For each tested condition 2×10^5 of treatedcells were plated in a 96-wells plate. The same day, lymph nodes from an OT1 mouse (C57B1/6J TCR-transgenic CD8^+ T cells specific for Kb -OVA257-264, obtained from Charles River #642OT1) were harvested. Lymph nodes were dissociated and filtered through a 40 µm filter and red blood cells were lysed with ACK buffer. 8×10^5 OT-1 cells were added to the MCA205-Glob-SL8-intron cells (E:T ratio of 4:1) and the plate was incubated overnight at 37°C. The next day, translocation to the golgi was blocked with brefeldin A (#420601, Biolegend) for 3h before cells were stained with Zombie Aqua (#423102, Biolegend) and antibodies described in Table 2, to measure T cell activation. Samples were acquired on a Cytek Aurora (Cytek Biosciences) spectral flow cytometer and data was analysed with FlowJo (V10) software (TreeStar, Inc.). Table 2: Panel of antibodies for the study of OT-1 CD8+ T-cells activation by MCA205-Glob-SL8-intron.
# In their experiments, OT-1 cells were co-incubated with MCA205 cells expressing the globin-SL8-intron construct. To assess the production of antigenic peptide substrates, they measured OT-1 cell proliferation using FACS analysis. They analyzed the expression levels of early activation markers, CD69 and CD25, which are critical for the proliferation of activated T cells. For that purpose, MCA205 cells with the globin-SL8-intron construct were exposed to varying concentrations of compound 58 for 24 hours, followed by co-incubation with OT-1 cells.
# Furthermore, inventors sought to characterize the activated OT-1 cell subset induced by this treatment. To do so, they examined the expression of CD44 and CD62L (L-selectin) markers, which delineate two major subsets of OT-1 CD8+ T cells following co-culture with MCA cells treated with compound 58: effector/memory (CD44^high/CD62L^low) and central memory (CD44^high/CD62L^high) CD8+ T cell subsets.
# Inventors then evaluated the effector function of OT-1 cells post-co-culture with MCA cells treated with compound 58 by examining the expression of perforin.
# [3] = MCA cells treated 24 hours, then co-culture with OT-1 cells
smiles,measurement,setting,value
Cc1ccc(N=Nc2ccc(C)cc2NC(=O)Nc2ccccc2F)cc1 [compound 58],change in melting temperature (ΔTm),20S proteasome,no significant change in ΔTm
same,IC50,[1],39.1 µM
same,IC50,[2],150 µM
same,IC50,A375 REGγ KO cells,486 µM
same,IC50,MCA REGγ KO cells,99.6 µM
same,frequency of CD69+ CD25+ OT-1 T cells,"OT-1 CD8+ T cells; MCA205 cells treated 24 hours, then co-incubation with OT-1 cells, compared to untreated cells",increased frequency
same,frequency of CD44^high/CD62L^low effector/memory cells,OT-1 CD8+ T cells; [3],dose-dependent increase
same,frequency of central memory CD44^high/CD62L^high cells,OT-1 CD8+ T cells; [3],remained unchanged
same,perforin expression of OT-1 cells,OT-1 CD8+ T cells; [3],increased perforin expression
